Like-named read-outs stand apart in the source and are kept apart here.
Legend:
[1] = system: Cor.4U hiPSC-CMs; test: ATP level (CellTiter-Glo) in hiPSC-CMs; type: cell-based, human
[2] = system: NRCMs; test: Mitochondrial membrane potential by TMRE staining; type: cell-based, rat; details: 24 h of treatment
From the text: Fig S3 Mitochondrial membrane potential changes in response to TKIs. (A) Raw images of TMRE staining in NRCMs treated with different drugs. (B) Fold changes in mitochondrial membrane potential at different treatments.

[3] = system: ER stress genes in NRCMs; test: qRT-PCR of ER stress genes in NRCMs; type: cell-based, rat; details: afatinib 5.62 µM, sorafenib 3.16 μM, ponatinib 1.78 μM
[4] = system: Phospho-eIF2α, XBP1s, ATF6 (cleaved); test: Western blot of ER stress effectors in NRCMs; type: cell-based, rat
Procedure: Cells were homogenized in the RIPA lysis buffer (Applygen) containing protease and phosphatase inhibitor cocktails (Bimake). The extract was spun at 12,000xg for 20min at 4°C. Total protein was measured by BCA (Thermofisher) and resolved by sodium dodecyl sulfate–polyacrylamide gel electrophoresis (SDS-PAGE). Proteins were blotted to polyvinylidene difluoride membranes (Amersham). Blots were blocked with non-fat milk (BBI Life Sciences) and incubated with antibodies against ATF6 (proteintech), phospho-eIF2α (ABclonol), XBP1 (ABclonol) and GAPDH (proteintech). Goat anti-rabbit IgG, goat anti-mouse IgG were incubated with the blots for 1 hour at room temperature. After 3 washes with 1xTBST (50 mM Tris-Cl, 150 mM NaCl, 0.1% Tween 20, pH 7.5), the blots were developed with the ECL Plus Kit (Absin). Relative protein expression was quantified by optical density and normalized to GAPDH.

[5] = system: NRCMs; test: ROS by H2DCFDA staining and flow cytometry; details: 3 h; 10 µM afatinib, 10 µM sorafenib, 5.62 µM ponatinib
Procedure: (§1) For ROS assessment, cells were washed with PBS once and stained with 10μM H2DCFHDA (MCE) in phenol red-free DMEM (Procell) in a humid incubator with 5% CO2 at 37°C for 30 minutes. Cells were washed with PBS twice and dissociated to single cells before flow cytometry analysis at the FITC channel. For lipid peroxidation measurement, cells were washed with PBS once and stained with 2μM C11-bodipy^581/591 (Cayman) in phenol red-free DMEM (Procell) in a humid incubator with 5% CO2 at 37°C for 30 minutes. Cells were washed with PBS twice and dissociated to single cells before flow cytometry analysis at both the FITC and the PE channels. Fluorescence of the oxidized C11-bodipy were acquired through the FITC channel (Ex/Em=488/520nm) and that of the non-oxidized C11-bodipy through the PE channel (Ex/Em=555/624nm).

[6] = system: NRCMs; test: Lipid peroxidation by C11-bodipy 581/591 and flow cytometry
Procedure: as §1

[7] = system: NRCMs; test: Calcium staining with Calbryte 520 AM; type: cell-based, rat; details: 0.5 and 1 h; 10 µM afatinib, 10 µM sorafenib, 5.62 µM ponatinib
[8] = system: Cor.4U hiPSC-CMs; set-up: method as in GSE114686; details: ref GSE114686, cited from earlier work
[9] = system: Cor.4U hiPSC-CMs; test: 3'DGE-UMI RNAseq transcriptome of hiPSC-CMs
[10] = Sprague-Dawley, rat, 24 h, 10 µM

SMILES: CNC(=O)c1cc(Oc2ccc(NC(=O)Nc3ccc(Cl)c(C(F)(F)F)c3)cc2)ccn1 [sorafenib]
- effect on ATP levels ([1]; 0.32 to 10 µM, day 1 to day 5): slight increase in the ATP level at day 1, but decrease at day 5
- EC50 (ATP) compared with maximal plasma concentration (Cmax) ([1]; day 5): lower than or similar to their maximal plasma concentrations (Cmax)
- mitochondrial membrane potential [2]: decreased the mitochondrial membrane potential significantly
- temporal activation of ER stress genes, 72 versus 24 h [3]: most gene targets of ER stress were downregulated over time
- duration of activated eIF2α phosphorylation [4]: 6 h
- increase in percent of ROS-high cells [5]: 16.2%
- change in percent of cells with high lipid peroxidation [6]: increased slightly
- level of lipid peroxidation, TKI alone [6, 10]: 94.6%
- level of lipid peroxidation, TKI with trolox [6, 10]: 88%
- cytosolic calcium concentration [7]: significant cytosolic overload of Ca^2+
- CHAC1 logFC ([8]; Sorafenib 3.16 µM 168 hours): 3.62
- DDIT3 logFC ([8]; Sorafenib 3.16 µM 168 hours): 4.28
- DNAJB9 logFC ([8]; Sorafenib 3.16 µM 168 hours): 1
- TRIB3 logFC ([8]; Sorafenib 3.16 µM 168 hours): 5.51
- XBP1 logFC ([8]; Sorafenib 3.16 µM 168 hours): 1.42
- CHAC1 logFC ([8]; Sorafenib 10 µM 24 hours): 4.55
- DDIT3 logFC ([8]; Sorafenib 10 µM 24 hours): 4.73
- DNAJB9 logFC ([8]; Sorafenib 10 µM 24 hours): 1.43
- TRIB3 logFC ([8]; Sorafenib 10 µM 24 hours): 5.56
- XBP1 logFC ([8]; Sorafenib 10 µM 24 hours): 1.79
- expression of tRNA aminoacylation gene markers (SARS, GARS) ([9]; Cluster 3): increased
- expression of genes associated with ER stress (ATF4, NUPR1, DDIT3, TRIB3, CHAC1, SESN2, HERPUD1) ([9]; high PC1 loadings, ponatinib at high dose): upregulated

From article PMC10108821, “Three tyrosine kinase inhibitors cause cardiotoxicity by inducing endoplasmic reticulum stress and inflammation in cardiomyocytes” (BMC Medicine, 2023)
